Assay results as given in patent US11045486B2, “Therapeutic method and therapeutic agent for atopic dermatitis in animals” (priority 2015, dated 2021).
Entries after “also recorded” stand apart in the source; their conditions may differ.

Columns and labels:
[1] = system: canine atopic dermatitis; test: CADLI index (skin lesion score) in dogs with atopic dermatitis before and after drug administration; format: in vivo, dog; conditions: for effect of improving clinical symptoms of canine atopic dermatitis: 127 dogs, single agents 30 days each, combination up to 60 days, compared with before administration; for CADLI score, average value and standard error / CADLI score, average value (standard error): 30-days administration; for CADLI score, average value (standard error): all 127 dogs, oral with meals every 12 hours (RXM 5 mg/kg, PTX 25 mg/kg), prior to administration 33.17
Description: The CADLI index used in the present specification is an index representing the skin condition of atopic dermatitis, and the skin condition of the five parts of the body is scored by estimating erythema, scratch, erosion, alopecia, lichenification, hyperpigmentation (Non-Patent Document 14). Therefore, the highest point is 50 points, and closer to 50 points the skin inflammation is becoming more severe. […] This figure decreased to 12.04±1.11 after 30 days of dosing and 6.51±1.51 after 60 days, and it was remarkable for all 127 cases (100%). To be able to obtain remission of symptoms with high probability. […] Target animals: For five years from 2010 to 2015, at Gotofu Animal Hospital (1-1-3, […], Fukuoka City, Fukuoka Prefecture), among dogs diagnosed as atopic dermatitis of dogs by diagnostic criteria announced by Dr. Favrot in 2010 (non patent literature 15), the examinations were conducted for 127 dogs for which the consent and cooperation of treatment were obtained from the family and whose sum of SQK were larger than the sum of SLK of the 5 parts, whose SLK and SQK value were calculated for 5 parts of the neck, the fossa, the back, the forearm, and the lower leg. As content of implementation items, in all 127 cases, roxithromycin was administered as a single agent for 30 days, and pentoxifylline was administered as a single agent for the next 30 days. During the last 60 days, roxithromycin and pentoxifylline were administered in combination. The constituent of the targeted dog type is as shown in (Table 1). The constituent of the gender was 57 males (35 castrated with 35 male), 70 females (35 contraceptives already) (Table 1). Methods: In all 127 cases, 5 mg/kg of roxithromycin alone was orally administered with meals every 12 hours for the first 30 days. For the next 30 days, pentoxifylline alone was orally administered at 25 mg/kg with meals every 12 hours. For the next 60 days, 5 mg/kg of roxithromycin and 25 mg/kg of pentoxifylline were orally administered simultaneously with meals every 12 hours. After that, administration of roxithromycin and pentoxifylline was discontinued and a follow-up study was conducted for 30 days. For all treatment periods, meals were allowed to feed freely without restriction. Also, shampoo was carried out at home once a week. Local corticosteroid therapy was performed at any time as long as there was a strong itching lesion After measurement, roxithromycin (RXM) was administered as a single agent for 30 days. After administration, CADLI index was measured to ascertain the skin condition, and it was judged whether roxithromycin has the ability to improve atopic dermatitis by comparing the change of numerical values before and after medication. Similarly, for pentoxifylline (PTX), it was estimated whether pentoxifylline has the effect of improving canine atopic dermatitis by measuring the CADLI index as an index and comparing the values before and after administration. Finally, for administration of roxithromycin and pentoxifylline in combination, the CADLI index was measured on the 30th and 60th days of administration, respectively, and the effect of the drug was evaluated by comparing the values.

[2] = system: canine atopic dermatitis; conditions: 7 out of 37 dogs with canine atopic dermatitis; cited from earlier work
[3] = breed West Highland white terrier

Structure (SMILES) | effect of improving clinical symptoms of canine atopic dermatitis [1] | CADLI score, average value and standard error ([1]; age 4 years-6 years of age) | CADLI score, average value and standard error ([1]; age 7 years-9 years of age) | CADLI score, average value and standard error ([1]; age 10 years-12 years of age) | CADLI score, average value and standard error ([1]; age Over 13 years of age) | CADLI score, average value and standard error ([1]; age Under 3 years of age) | CADLI score, average value (standard error) [1] | CADLI score, average value and standard error ([1]; breed Chihuahua) | CADLI score, average value and standard error ([1]; breed Miniature dachschund) | CADLI score, average value and standard error ([1]; breed Mongrel) | CADLI score, average value and standard error ([1]; breed Others) | CADLI score, average value and standard error ([1]; breed Pug) | CADLI score, average value and standard error ([1]; breed Shiba) | CADLI score, average value and standard error ([1]; breed Shih Tzu) | CADLI score, average value and standard error ([1]; breed Toy Poodle) | CADLI score, average value and standard error ([1]; breed Welsh Corgi) | CADLI score, average value and standard error [1, 3] | CADLI score, average value and standard error ([1]; breed Yorkshire Terrier) | CADLI score, average value and standard error ([1]; sex Castrated male) | CADLI score, average value and standard error ([1]; sex Female) | further results
CC(=O)CCCCn1c(=O)c2c(ncn2C)n(C)c1=O [PTX, Pentoxifylline] | no therapeutic effect to improve atopic dermatitis in dogs; also recorded: unable to confirm the effect of improving the symptoms of atopic dermatitis in dogs | 32.38 ± 3.01 | 32.95 ± 3.47 | 34.61 ± 2.84 | 31.68 ± 3.93 | 33.94 ± 4.74 | 33.09 | 31.00 ± 9.01 | 28.64 ± 4.11 | 36.00 ± 6.08 | 35.26 ± 3.66 | 35.60 ± 3.48 | 34.93 ± 4.45 | 32.94 ± 3.09 | 36.86 ± 5.42 | 31.50 ± 6.11 | 34.40 ± 7.91 | 22.29 ± 7.94 | 32.63 ± 2.87 | 32.43 ± 3.13 | CADLI score, average value (standard error) ([1]; listed as pentoxifylline): 33.09±1.52; CADLI score, average value and standard error ([1]; sex Male): 35.41 ± 3.40; CADLI score, average value and standard error ([1]; sex Spayed female): 32.74 ± 2.98; patients in which single administration of pentoxifylline was effective [2]: 19%
CC[C@H]1OC(=O)[C@H](C)[C@@H](O[C@H]2C[C@@](C)(OC)[C@@H](O)[C@H](C)O2)[C@H](C)[C@@H](O[C@@H]2O[C@H](C)C[C@H](N(C)C)[C@H]2O)[C@](C)(O)C[C@@H](C)/C(=N\OCOCCOC)[C@H](C)[C@@H](O)[C@]1(C)O [RXM, Roxithromycin] | did not seem to have sufficient therapeutic effect to improve atopic dermatitis in dogs; also recorded: no effect of improving canine atopic dermatitis | 32.75 ± 2.82 | 33.55 ± 3.54 | 35.18 ± 2.89 | 32.32 ± 4.07 | 34.72 ± 4.91 | 33.64 | 31.67 ± 9.18 | 29.00 ± 4.24 | 36.57 ± 6.25 | 36.16 ± 3.50 | 35.30 ± 3.63 | 35.60 ± 4.44 | 33.39 ± 2.88 | 37.57 ± 5.51 | 31.50 ± 6.98 | 35.00 ± 8.08 | 23.00 ± 8.56 | 33.23 ± 2.97 | 32.71 ± 2.96 | CADLI score, average value (standard error) ([1]; listed as roxithromycin): 33.64±1.51; CADLI score, average value and standard error ([1]; sex Male): 36.41 ± 3.28; CADLI score, average value and standard error ([1]; sex Spayed female): 33.23 ± 3.01
